{"source": "patent US10815275B2", "about": "“Antimicrobial peptoids with improved selectivity and use thereof” (priority 2018, dated 2020)", "key": {"[1]": {"experiment": "Metabolic stability in human liver S9 fraction, HPLC", "type": "in vitro ADME", "details": "37° C., after 24 hours", "procedure": "In order to identify metabolic stability of the peptoids synthesized in Preparation Example 1, such peptoids were subjected to enzymatic reaction using S9 fraction which is a mixture of human liver tissue-extracted metabolic enzymes. Thereafter, for the reaction products, metabolites were quantitated using HPLC.\nSpecifically, Peptoid NOS. 1 and 4, and Pexiganan as a peptide control (40 μL each, 100 μM) were treated with […], 3.3 mM MgCl2, and 1.3 mM NADPH buffer (306 μL, pH=7.4), to prepare respective samples. The respective samples were treated with S9 fraction (2 μL, 0.1 mg/mL) and then incubated at a temperature of 37° C. When 0, 1, 4, and 24 hours had elapsed after treatment with the S9 fraction, 40 μL of each sample was taken out, and acetonitrile containing the same amount of 0.1% trifluoroacetic acid was used to stop activity of enzymes contained in the S9 fraction. Thereafter, proteins precipitated with acetonitrile were centrifuged at a condition of 1,000×g for 10 minutes at a temperature of 4° C. Then, supernatant was analyzed by HPLC to identify an amount of the remaining peptoid which had not been degraded by the enzymes in the S9 fraction."}, "E. coli strain ATCC25922": {"system": "E. coli strain ATCC25922", "type": "cell-based", "details": "strain ATCC25922", "how_it_was_run": "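Broth microdilution in cation-adjusted Mueller Hinton Broth used 2×10^5 CFU/mL in medium with 0.2% BSA and 0.01% acetic acid. Peptoids were 2-fold serially diluted, and plates were incubated 18 hours at 37° C. with absorbance read at 600 nm. MIC was the lowest concentration completely suppressing growth, averaged over three independent experiments; MBC was also determined.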"}, "[2]": {"system": "S. aureus strain KCTC1621", "type": "cell-based", "details": "strain KCTC1621", "how_it_was_run": "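Broth microdilution used 2×10^5 CFU/mL in cation-adjusted Mueller Hinton broth containing 0.2% BSA and 0.01% acetic acid, with 2-fold serial peptoid dilutions and 18 h at 37 °C. Growth was read at A600. MIC was the lowest concentration fully suppressing growth, averaged over three independent experiments.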"}, "red blood cells": {"system": "red blood cells", "experiment": "Hemolytic activity on red blood cells", "type": "cell-based, mouse", "how_it_was_run": "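Washed mouse red blood cells (10% v/v in PBS, pH 7.4) incubated with peptoids for 1 h at 37 °C; released haemoglobin read at 540 nm. % hemolysis normalised to 0.1% Triton X-100 (100%) and PBS blank; HD10, HD50 derived, Hmax taken at 200 μM top concentration.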"}, "in vitro": {"experiment": "in vitro", "type": "cell-based", "details": "concentration indicating 50% survival, 24 h, MTS; read-out: LC50", "how_it_was_run": "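Human lung […] cells, 1.3×10^4 per well in DMEM with 10% FBS, incubated overnight, then treated 24 h with 2-fold serially diluted peptoid at 37° C, 5% CO2. MTS added for 4 hours, absorbance 490 nm; % survival relative to untreated control cells.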"}, "E. coli": {"system": "E. coli", "experiment": "Selectivity analysis, HD10 divided by MIC for E. coli", "details": "HD10 of Table 6 divided by MIC for E. coli ATCC25922", "procedure": "In order to identify changes in selectivity depending on alteration of degree of folding in helical structure of peptoids, selectivity of each peptoid was calculated using the resultant values measured in the Experimental Examples 1 and 2. The selectivity was obtained by dividing the HD10 value by the minimum inhibitory concentration for E. coli (Table 8)."}}, "note": "Non-standard residues stand in square brackets, D forms with d. Residues, ends and D or L forms follow the SMILES beside them. Nspe = C[C@H](NCC(=O)O)c1ccccc1; Nlys = NCCCCNCC(=O)O", "data": [{"smiles": "C[C@@H](c1ccccc1)N(CC(N)=O)C(=O)CN(C(=O)CN(CCCCN)C(=O)CN(C(=O)CN(C(=O)CN(CCCCN)C(=O)CN(C(=O)CN(C(=O)CN(CCCCN)C(=O)CN(C(=O)CN(C(=O)CNCCCCN)[C@@H](C)c1ccccc1)[C@@H](C)c1ccccc1)[C@@H](C)c1ccccc1)[C@@H](C)c1ccccc1)[C@@H](C)c1ccccc1)[C@@H](C)c1ccccc1)[C@@H](C)c1ccccc1", "note": "[compound 1] (H-[Nlys][Nspe][Nspe][Nlys][Nspe][Nspe][Nlys][Nspe][Nspe][Nlys][Nspe][Nspe]-NH2)", "values": [{"measurement": "remaining amount after S9 fraction treatment", "setting": "[1]; human liver S9 fraction, 1440 min", "value": "about 64%"}, {"measurement": "remaining at 24 h, 11.5 μM", "setting": "[1]; human, s9, pH 7.4, human liver S9 fraction, read-out: remaining amount after S9 fraction treatment", "value": "≥ 60", "unit": "%"}, {"measurement": "MBC E. coli", "setting": "E. coli strain ATCC25922", "value": 3.1, "unit": "µM"}, {"measurement": "MBC S. aureus", "setting": "[2]", "value": 1.6, "unit": "µM"}, {"measurement": "Hmax (%)", "setting": "red blood cells; Table 6, hemolysis rate at 200 μM", "value": "113.4 ± 2.0", "unit": "%"}, {"measurement": "HD10", "setting": "red blood cells; Table 6, peptoid concentration causing 10% hemolysis, highest concentration 200 μM, in µM (unit assumed)", "value": 1.2}, {"measurement": "HD50", "setting": "red blood cells; Table 6, peptoid concentration causing 50% hemolysis, highest concentration 200 μM, in µM (unit assumed)", "value": 42.8}, {"measurement": "Hmax (%)", "setting": "red blood cells; Table 13, hemolysis rate at highest concentration 200 μM", "value": 100, "unit": "%"}, {"measurement": "CC50 at 24 h", "setting": "in vitro", "value": 8, "unit": "µM"}, {"measurement": "Selectivity [HD10/MIC (E. coli)]", "setting": "E. coli", "value": 0.4}]}]}
